Key:
[1] = test system: oxygen-induced retinopathy (OIR) mouse model; test: Neovascular tuft formation in oxygen-induced retinopathy (OIR) mouse model; settings: neonatal mice, 1.8 mg/kg s.c. at P12 and P14, read at P16, vs vehicle control
Experimental: Application volume was 10 ml/kg. Control animals received vehicle only.
In this context P means postnatal day. […] Starting from P12, the avascular area begins to revascularize and at the same time neovascular tufts protrude towards the vitreous. At P16 and P17, aberrant pathological neovascularization peaks and revascularization is still incomplete. Mouse eyes were enucleated, fixed in 4% PFA for at least 24 h, and embedded in paraffin. Every 3rd slide from serial sections (6 μm thick) was taken from around the region of the optic nerve. The PAS-stained sections were examined for the presence of neovascular tufts projecting into the vitreous from the inner limiting membrane of the retina. The neovascular score was defined as the mean number of neovascular cell nuclei per section found in ten sections (five on each side of the optic nerve) per eye. Tufts adjacent to the optic nerve (up to 90 μm from each side) were discriminated from counting. Data are represented as mean of 10 slides ±SEM counted tuft cells with one-way ANOVA testing and p<0.05 regarded as significant.

[2] = test system: STZ-induced diabetic rat model; test: Retinal function (ERG light sensitivity) in STZ-induced diabetic rat model; type: in vivo; settings: STZ diabetic rats, 1.8 mg/kg orally twice daily for 5 weeks; group 3 compared to diabetic vehicle group 2
Experimental: Male Brown Norway rats (BN rats) were obtained from Charles River (Germany). Hyperglycemia was induced by i.p. injections of STZ (65 mg/kg body weight). […] API was used in the form of its hydrochloride. Retinal function was assessed via electroretinography (ERG) recordings. ERG is a non-invasive electrophysiological technique to assess light-induced electrical activity of different retinal neurons, and allows for quantifying different aspects of retinal function such as dim light or color vision. After induction of diabetes via i.p. STZ application (day 1), diabetic (hyperglycemic) animals were randomized into groups of similar blood glucose concentrations (>20 mM at day 5). At week 5 post diabetes induction, ERG recordings were performed to quantify the extent of neuronal dysfunction in the retina. […] The light sensitivity of rod-driven ERG b-wave responses is a measure for the number of neurons participating in the rod-driven retinal pathway (in particular photoreceptors and downstream bipolar cells), and their sensitivity towards light stimuli in order to produce depolarizing light responses. […]

AOC3 = target: T1, AOC3 (Mus musculus, UniProt O70423); test: AOC3 activity in sentinel lung tissue homogenates of OIR mice; settings: 1.8 mg/kg s.c.
T1 sequence (O70423 1-765): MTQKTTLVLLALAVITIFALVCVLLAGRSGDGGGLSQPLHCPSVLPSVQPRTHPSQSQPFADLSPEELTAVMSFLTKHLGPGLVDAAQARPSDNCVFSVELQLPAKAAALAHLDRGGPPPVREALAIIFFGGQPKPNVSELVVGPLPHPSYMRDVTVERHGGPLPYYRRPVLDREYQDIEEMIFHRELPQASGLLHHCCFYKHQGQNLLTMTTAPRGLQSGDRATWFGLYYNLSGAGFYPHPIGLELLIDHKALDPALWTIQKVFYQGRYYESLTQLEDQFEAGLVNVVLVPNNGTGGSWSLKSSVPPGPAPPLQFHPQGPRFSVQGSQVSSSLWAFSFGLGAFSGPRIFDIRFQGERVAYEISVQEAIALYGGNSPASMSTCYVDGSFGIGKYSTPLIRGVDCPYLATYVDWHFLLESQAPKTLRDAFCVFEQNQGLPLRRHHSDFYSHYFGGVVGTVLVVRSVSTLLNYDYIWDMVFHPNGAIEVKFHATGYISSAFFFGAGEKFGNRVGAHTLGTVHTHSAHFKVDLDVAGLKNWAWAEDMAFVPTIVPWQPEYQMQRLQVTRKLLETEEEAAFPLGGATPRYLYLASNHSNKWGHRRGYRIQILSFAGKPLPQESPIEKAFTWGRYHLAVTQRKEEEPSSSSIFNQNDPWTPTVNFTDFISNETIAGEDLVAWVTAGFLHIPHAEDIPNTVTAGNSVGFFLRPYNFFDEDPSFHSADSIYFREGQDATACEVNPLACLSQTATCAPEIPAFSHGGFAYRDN

| SMILES | Reduction of retinal neovascular tuft formation (tuft number) [1] | Increase in normalized light sensitivity of rod-driven ERG b-wave responses [2] | Inhibition of AOC3 activity in sentinel lung tissue homogenates (AOC3) |
| --- | --- | --- | --- |
| CC(C)(C)NC(=O)c1ccc(OC/C(=C/F)CN)cc1 [API, (E)-4-(2-(aminomethyl)-3-fluoroallyloxy)-N-tert-butylbenzamide] | 49% | ~30% | – |
| C[C@@H]1C[C@H]2[C@@H]3CCC4=CC(=O)C=C[C@]4(C)[C@@]3(F)[C@@H](O)C[C@]2(C)[C@@]1(O)C(=O)CO [Dexamethasone] | 57% | – | no significant effect |

Reference: patent US10603292B2 (Boehringer Ingelheim International GmbH, priority 2017, dated 2020)
